Test results: patent US4068074A, “Cephalosporin derivatives having at the 3-position of the cephem ring a heterocyclic thiomethyl group with a carboxy or sulfo group and at the 7-position of the cephem ring an α-heterocylic acylaminophenyl-acetamide group” (priority 1974, dated 1978)
Values after ≈ are worked out from the molar mass of the structure shown. Like-named read-outs stand apart in the source and are kept apart here.

Columns and labels:
Format in all cases: cell-based
[1] = tested on: Micrococcus flavus ATCC 10240; experiment: MIC against bacteria (Table I), strain (15); conditions: ATCC10240
Excerpt: (§1) Now, for illustrating the excellent pharmacological effects of the compounds of this invention, the values of MIC (γ/ml.) of the compounds against various bacteria are shown in Table 1, in which the compounds of this invention used are shown by example numbers.
(15) Micrococcus flavus ATCC 10240

[2] = tested on: Escherichia coli kauffmann 0-1; experiment: MIC against bacteria (Table I), strain (7)
Excerpt: as §1
(7) Escherichia coli kauffmann 0-1

Proteus vulgaris OXK US = experiment: MIC against bacteria (Table I), strain (1)
Excerpt: as §1
(1) Proteus vulgaris OXK US

[3] = tested on: Staphylococcus Shimanishi; experiment: MIC against bacteria (Table I), strain (17)
Excerpt: as §1
(17) Staphylococcus Shimanishi

[4] = tested on: Pseudomonas aeruginosa ATCC 8689; experiment: MIC against bacteria (Table I), strain (4); conditions: ATCC8689; (4) Pseudomonas aeruginosa ATCC 8689; read-out: MIC
Excerpt: as §1
(4) Pseudomonas aeruginosa ATCC 8689

[5] = tested on: Bacillus subtilis ATCC 6633; experiment: MIC against bacteria (Table I), strain (14); conditions: ATCC6633
Excerpt: as §1
(14) Bacillus subtilis ATCC 6633

Shigella sonnei II 37148 = experiment: MIC against bacteria (Table I), strain (12); conditions: II37148
Excerpt: as §1

[6] = tested on: Bacillus megatherium 10778; experiment: MIC against bacteria (Table I), strain (13)
Excerpt: as §1

Staphylococcus Onuma = experiment: MIC against bacteria (Table I), strain (18)
Excerpt: as §1
(18) Staphylococcus Onuma

Salmonella enteritidis = experiment: MIC against bacteria (Table I), strain (10); conditions: Salmonella enterica
Excerpt: as §1
(10) Salmonella enteritidis

[7] = tested on: Klebsiella pneumoniae ATCC 10031; experiment: MIC against bacteria (Table I), strain (8); conditions: ATCC10031
Excerpt: as §1
(8) Klebsiella pneumoniae ATCC 10031

[8] = tested on: Staphylococcus aureus 209P; experiment: MIC against bacteria (Table I), strain (16)
Excerpt: as §1
(16) Staphylococcus aureus 209P

[9] = tested on: Shigella flexneri 2a 1675; experiment: MIC against bacteria (Table I), strain (11); conditions: 2A1675
Excerpt: as §1

Proteus vulgaris 0X 19US = experiment: MIC against bacteria (Table I), strain (2); conditions: 0X19US
Excerpt: as §1
(2) Proteus vulgaris 0X 19US

Salmonella typhi H901 W = experiment: MIC against bacteria (Table I), strain (9); conditions: Salmonella enterica, TYPHI
Excerpt: as §1
(9) Salmonella typhi H901 W

[10] = tested on: Pseudomonas aeruginosa 99 (Gentamycin resistant); experiment: MIC against bacteria (Table I), strain (5)
Excerpt: as §1
(5) Pseudomonas aeruginosa 99 (Gentamycin resistant)

[11] = tested on: Psuedomonas ovalis IMA 1002; experiment: MIC against bacteria (Table I), strain (6)
Excerpt: as §1
(6) Psuedomonas ovalis IMA 1002

[12] = tested on: Proteus mirabilis IXM OM-19; experiment: MIC against bacteria (Table I), strain (3); conditions: IXMOM19; (3) Proteus mirabilis IXM OM-19; read-out: MIC
Excerpt: as §1
(3) Proteus mirabilis IXM OM-19

[13] = (12) Shigella sonnei II 37148, read-out: MIC
[14] = (8) Klebsiella pneumoniae ATCC 10031, read-out: MIC
[15] = (11) Shigella flexneri 2a 1675, read-out: MIC
[16] = (15) Micrococcus flavus ATCC 10240, read-out: MIC
[17] = (6) Psuedomonas ovalis IMA 1002, read-out: MIC
[18] = (1) Proteus vulgaris OXK US, read-out: MIC
[19] = (17) Staphylococcus Shimanishi, read-out: MIC
[20] = (14) Bacillus subtilis ATCC 6633, read-out: MIC
[21] = (13) Bacillus megatherium 10778, read-out: MIC
[22] = (18) Staphylococcus Onuma, read-out: MIC
[23] = (10) Salmonella enteritidis, read-out: MIC
[24] = (16) Staphylococcus aureus 209P, read-out: MIC
[25] = (2) Proteus vulgaris 0X 19US, read-out: MIC
[26] = (5) Pseudomonas aeruginosa 99 (Gentamycin resistant), read-out: MIC

Compound	MIC ([2]; Escherichia coli)	MIC ([3]; Staphylococcus)	MIC [4]	MIC (Shigella sonnei II 37148; [13])	MIC (Staphylococcus Onuma; Staphylococcus)	MIC [7, 14]	MIC ([8]; Staphylococcus aureus, 209P)	MIC [9, 15]	MIC (Salmonella typhi H901 W)	MIC ([10]; Pseudomonas aeruginosa)	MIC [1, 16]	MIC [11, 17]	MIC (Proteus vulgaris OXK US; [18])	MIC [3, 19]	MIC [5, 20]	MIC [6, 21]	MIC [12]	MIC (Salmonella enteritidis; [23])	MIC [8, 24]	MIC (Proteus vulgaris 0X 19US; [25])	also measured
CC1=C(C(=O)O)N2C(=O)[C@@H](NC(=O)[C@H](N)c3ccccc3)[C@H]2SC1 [Cephalexin, reference compound]	10 µg/mL (≈ 28.8 µM)	6.25 µg/mL (≈ 18 µM)	> 100 µg/mL	6.25 µg/mL (≈ 18 µM)	12.5 µg/mL (≈ 36 µM)	3 µg/mL (≈ 8.64 µM)	1.56 µg/mL (≈ 4.49 µM)	6.25 µg/mL (≈ 18 µM)	6.25 µg/mL (≈ 18 µM)												MIC ([1]; Micrococcus flavus): 1.56 µg/mL (≈ 4.49 µM); MIC (Proteus vulgaris OXK US; Proteus vulgaris): 30 µg/mL (≈ 86.4 µM); MIC ([5]; Bacillus subtilis): 0.78 µg/mL (≈ 2.25 µM); MIC ([6]; Bacillus, 10778): 0.78 µg/mL (≈ 2.25 µM); MIC (Salmonella enteritidis; ENTERITIDIS): 6.25 µg/mL (≈ 18 µM); MIC (Proteus vulgaris 0X 19US; Proteus vulgaris): 30 µg/mL (≈ 86.4 µM)
CC(=O)OCC1=C(C(=O)O)N2C(=O)[C@@H](NC(=O)[C@H](N)c3ccccc3)[C@H]2SC1 [Cephaloglycin, reference compound]	100 µg/mL (≈ 247 µM)		> 100 µg/mL	10 µg/mL (≈ 24.7 µM)		25 µg/mL (≈ 61.7 µM)		3 µg/mL (≈ 7.4 µM)	3 µg/mL (≈ 7.4 µM)	> 100 µg/mL	0.3 µg/mL (≈ 0.74 µM)	> 100 µg/mL	25 µg/mL (≈ 61.7 µM)	3 µg/mL (≈ 7.4 µM)	0.3 µg/mL (≈ 0.74 µM)	1 µg/mL (≈ 2.47 µM)	100 µg/mL (≈ 247 µM)	3 µg/mL (≈ 7.4 µM)	1 µg/mL (≈ 2.47 µM)	100 µg/mL (≈ 247 µM)	MIC (Staphylococcus Onuma; [22]): 3 µg/mL (≈ 7.4 µM)
O=C(O)CCC(=O)Nc1nnc(SCC2=C(C(=O)O)N3C(=O)[C@@H](NC(=O)[C@H](NC(=O)c4csccc4=O)c4ccccc4)[C@H]3SC2)s1 [Example 1, 7-[D-α-(4-oxo-4H-thiopyran-3-ylcarboxamido)-α-phenylacetamido]-3-[5-(3-carboxypropionylamino)-1,3,4-thiadiazol-2-yl]thiomethyl-Δ^3-cephem-4-carboxylic acid]			25 µg/mL (≈ 34.9 µM)	25 µg/mL (≈ 34.9 µM)	6.25 µg/mL (≈ 8.72 µM)			6.25 µg/mL (≈ 8.72 µM)	1.56 µg/mL (≈ 2.18 µM)		3.13 µg/mL (≈ 4.37 µM)	25 µg/mL (≈ 34.9 µM)	0.19 µg/mL (≈ 0.265 µM)	3.13 µg/mL (≈ 4.37 µM)	0.39 µg/mL (≈ 0.544 µM)	0.78 µg/mL (≈ 1.09 µM)	0.78 µg/mL (≈ 1.09 µM)	0.78 µg/mL (≈ 1.09 µM)	0.78 µg/mL (≈ 1.09 µM)	0.19 µg/mL (≈ 0.265 µM)	MIC [10, 26]: 50 µg/mL (≈ 69.8 µM); MIC ([2]; (7) Escherichia coli kauffmann 0-1, read-out: MIC): 25 µg/mL (≈ 34.9 µM); MIC ([7]; Klebsiella pneumoniae): 6.25 µg/mL (≈ 8.72 µM)
O=C(O)CCSc1nnc(SCC2=C(C(=O)O)N3C(=O)[C@@H](NC(=O)[C@H](NC(=O)c4cnccc4O)c4ccccc4)[C@H]3SC2)s1 [Example 5, 7-[D-α-(4-hydroxynicotinoylamido)-α-phenylacetamido]-3-(5-carboxyethylthio-1,3,4-thiadiazol-2-yl)-thiomethyl-Δ^3-cephem-4-carboxylic acid]	6.25 µg/mL (≈ 9.07 µM)	6.25 µg/mL (≈ 9.07 µM)	12.5 µg/mL (≈ 18.1 µM)	6.25 µg/mL (≈ 9.07 µM)	6.25 µg/mL (≈ 9.07 µM)		1.56 µg/mL (≈ 2.26 µM)	1.56 µg/mL (≈ 2.26 µM)	1.56 µg/mL (≈ 2.26 µM)	6.25 µg/mL (≈ 9.07 µM)	3.13 µg/mL (≈ 4.54 µM)		< 0.09 µg/mL		0.39 µg/mL (≈ 0.566 µM)	0.78 µg/mL (≈ 1.13 µM)	0.78 µg/mL (≈ 1.13 µM)	0.39 µg/mL (≈ 0.566 µM)		0.19 µg/mL (≈ 0.276 µM)	MIC [11]: 6.25 µg/mL (≈ 9.07 µM); MIC ([7]; Klebsiella pneumoniae): 6.25 µg/mL (≈ 9.07 µM)
O=C(O)CSc1nnc(SCC2=C(C(=O)O)N3C(=O)[C@@H](NC(=O)[C@H](NC(=O)c4csccc4=O)c4ccccc4)[C@H]3SC2)s1 [Example 10]	6.25 µg/mL (≈ 9.03 µM)		25 µg/mL (≈ 36.1 µM)			3.13 µg/mL (≈ 4.52 µM)			1.56 µg/mL (≈ 2.25 µM)		3.13 µg/mL (≈ 4.52 µM)	50 µg/mL (≈ 72.3 µM)	< 0.09 µg/mL	3.13 µg/mL (≈ 4.52 µM)	0.19 µg/mL (≈ 0.275 µM)	0.39 µg/mL (≈ 0.564 µM)	0.39 µg/mL (≈ 0.564 µM)	0.19 µg/mL (≈ 0.275 µM)	0.39 µg/mL (≈ 0.564 µM)	< 0.09 µg/mL	MIC [10, 26]: 50 µg/mL (≈ 72.3 µM); MIC (Shigella sonnei II 37148; Shigella sonnei): 6.25 µg/mL (≈ 9.03 µM); MIC (Staphylococcus Onuma; [22]): 3.13 µg/mL (≈ 4.52 µM); MIC ([9]; Shigella flexneri): 1.56 µg/mL (≈ 2.25 µM)
